From patent publication US20140193510A1, “Polymer-Agent Conjugates, Particles, Compositions, and Related Methods of Use” (CERULEAN PHARMA INC., priority 2009, published 2014)
Where “and” joins values, the source holds several entries; their conditions need not be identical. Equal entries are not always repeated. Entries after “also recorded” stand apart in the source; their conditions may differ. Where two headings read alike, the source gives them in different places.

Tests used:
[1] = mouse, in vivo
Method: The stock solution was diluted further with PBS to 0.6, 1.5, 3, 4.5 and 6 mg/mL (for a corresponding dose of 6, 15, 30, 45 and 60 mg/kg) so that all the groups received the same amount of ethanol, polysorbate 80, water and PBS. […] 5) PEGylated O-acetyl-5050-PLGA nanoparticle vehicle at the highest concentration of 6 mg/mL.
The treatments were administered IV into the tail vein at a dose volume of 10 mL/kg, beginning on post-implantation Day 5, when the mean tumor volume was 55 mm^3. The treatments were administered 4 times, on Days 5, 8, 12 and 15 (biweekly×4 injections). On Day 17 post-tumor implantation, mice were euthanized by CO2 inhalation according to the procedure guideline. Blood was collected by cardiac puncture and put into ethylenediaminetetraacetic acid (EDTA) or serum separation blood collection tubes. Whole blood was analyzed on the day of collection for CBC analyses. After the blood clotted and was centrifuged, serum was frozen immediately on dry ice for serum chemistry analyses.
Tolerability was determined by changes in body weight, expressed as a percent of the initial body weight on post-implantation Day 5. […] Other indices of toxicity, complete blood count (CBC) and serum chemistry were determined from blood collected from animals that were euthanized on Day 17 by CO2 inhalation, according to the procedure guideline.

[2] = Body weight and ataxia in SK-OV-3 tumor-bearing mice (Example 45); format: in vivo, CD-1 nude mice; conditions: weekly x two injections
[3] = Tolerability (body weight) in B16.F10 murine melanoma model (Example 43); format: in vivo, C57BL/6 mice
[4] = Tolerability in normal non-tumor-bearing mice (body weight, CBC, serum chemistry, ataxia, sciatic nerve; Example 47); format: in vivo, C57BL/6 mice; conditions: for ataxia: n=5
Method: Treatments were administered intravenously on a q7dx2 schedule, i.e., two treatments seven days apart (the first treatment was on Day one). The study ended on Day 14, six days after the 2nd treatment. Blood was collected for complete blood count (CBC) and serum chemistry. Leg muscles were collected so that nerve degeneration could be assessed from the sciatic nerve.

MDA-MB-435 cells = experiment: In vivo efficacy, MDA-MB-435 melanoma human xenograft model (Example 46); design: species or system CD-1 nude mice; conditions: as of Day 76, weekly x two injections
Method: MDA-MB-435 cells were grown in culture to confluency in RPMI medium containing 10% FBS and 1% penicillin/streptomycin and then resuspended in RPMI (passage 4) for implantation into mice. A volume of 0.1 mL containing 4.0×10^6 cells MDA-MB-435 cells were implanted into the mammary gland of female CD-1 nude mice on Day 1.

[5] = Body weight in HCT-116 tumor bearing mice (Example 44); format: in vivo, CD-1 nude mice; conditions: 30 mg/kg IV
Method: The treatments were administered IV into the tail vein at the respective dose volumes (refer to previous paragraph), beginning on post-implantation Day 13, when the mean tumor volume was 131 mm^3.

[6] = Body weight and ataxia in MDA-MB-435 tumor-bearing mice (Example 46); conditions: for ataxia: weekly x two injections
Method: The treatments were administered IV into the tail vein at the dose volumes stated above, beginning on post-implantation Day 21, when the mean tumor volume was 150 mm^3 or, for one group, on Day 37, when the mean tumor volume for that group was 433 mm^3.

[7] = Body weight changes in A2780 tumor-bearing mice (Example 42); format: in vivo, CD-1 nude mice; conditions: for % of initial body weight: Day 36
Method: This formulation was made within 30 minutes of administration to mice.
The treatments were administered 2 times, on Day 8 and Day 15 (weekly×2 injections) for n=8 mice per group. […] On Day 50, the study was ended for all remaining mice. When removed from the study, mice were euthanized by CO2 inhalation.

B16.F10 cells [8] = experiment: Efficacy in B16.F10 murine melanoma model (Example 43); format: in vivo, C57BL/6 mice; conditions: q4dq3dx3 (three injections over 2 weeks), 15 mg/kg IV
Method: Refer to table for detailed description of formulations.
Tumor volume was calculated with the following equation: (width×width×length)/2 mm^3.

B16.F10 cells [9] = experiment: CellTiter-Glo Luminescent Cell Viability Assay (cytotoxicity of nanoparticles); format: cell-based; conditions: 24, 48 and 72 hours of incubation
Method: B16.F10 cells, grown to 85-90% confluency in 150 cm^2 flasks (passage <30), were resuspended in media (MEM-alpha, 10% HI-FBS, 1× antibiotic-antimycotic) and added to 96-well opaque-clear bottom plates at a concentration of 1500 cells/well in 200 μL/well. The cells were incubated at 37° C. with 5% CO2 for 24 hours. The following day, serial dilutions of 2× concentrated particles and 2× concentrated free drug were made in 12-well reservoirs with media to specified concentrations. The media in the plates was replaced with 100 μL of fresh media and 100 μL of the corresponding serially diluted drug. Three sets of plates were prepared with duplicate treatments. Following 24, 48 and 72 hours of incubation at 37° C. with 5% CO2, the media in the plates was replaced with 100 μL of fresh media and 100 μL of CTG solution, and then incubated for 5 minutes on a plate shaker at room temperature set to 450 rpm and allowed to rest for 15 minutes. Viable cells were measured by luminescence using a microtiter plate reader. The data was plotted as viability vs. concentration and standardized to untreated cells.

CC(=O)O[C@@]12CO[C@@H]1C[C@H](O)[C@@]1(C)C(=O)[C@H](O)C3=C(C)[C@@H](OC(=O)[C@H](O)[C@@H](NC(=O)OC(C)(C)C)c4ccccc4)C[C@@](O)([C@@H](OC(=O)c4ccccc4)[C@H]21)C3(C)C [Free docetaxel, docetaxel]
effect on serum chemistry parameters [1]: did not affect any serum chemistry parameter at doses up to 30 mg/kg
Maximum body weight loss ([2]; 30 mg/kg IV): 13%
ataxia ([2]; 30 mg/kg IV): did not cause ataxia
body weight loss ([2]; 60 mg/kg IV): greater than 20%
Maximum body weight loss ([3]; q3dq4dx3, 15 mg/kg IV, listed as Docetaxel): 11% and 12%
Maximum body weight loss ([3]; q4dq3dx3, 15 mg/kg IV): 11%
Maximum body weight loss ([3]; q7dx3, 30 mg/kg IV): 11%
Maximum body weight loss ([3]; q14dx2, 60 mg/kg IV, listed as Docetaxel): 0%
Maximum body weight loss ([3]; q14dx2, 60 mg/kg IV, listed as docetaxel): did not show any body weight loss
Maximum body weight loss ([3]; three times, once every week, 15 mg/kg (as worded)): 11%
body weight more than the initial on Day 14 ([4]; 30 mg/kg IV q7dx2): 3%
ataxia ([4]; 30 mg/kg IV q7dx2): 0%
body weight more than the initial on Day 14 ([4]; 45 mg/kg IV q7dx2): 2%
ataxia ([4]; 45 mg/kg IV q7dx2): 20%
Neutrophil mean ([4]; 60 mg/kg IV q7dx2, Day 14): 470 cells/μL
weight lost after the second treatment, by the end of the study ([4]; 60 mg/kg IV q7dx2, Day 14): 19%
ataxia ([4]; 60 mg/kg IV q7dx2): 100%
effect on serum chemistry parameters ([4]; q7dx2, Day 14): did not affect any serum chemistry parameter at doses up to 60 mg/kg
mice observed to develop ataxia ([4]; q7dx2, n=5/group, dose in the value): no mice in the 30 mg/kg group were seen to develop ataxia or any overt signs of nerve damage; also recorded: One mouse in the 45 mg/kg group was observed to develop ataxia on Day 14; also recorded: Five out of five mice in the 60 mg/kg group was observed to develop ataxia
TGI compared with PEGylated nanoparticles (MDA-MB-435 cells; listed as docetaxel): docetaxel at a dose of 30 mg/kg is equivalent to PEGylated nanoparticles at a dose of 60 mg/kg
TGI compared with PEGylated nanoparticles (MDA-MB-435 cells; listed as free docetaxel): the treatment at a dose of 15 mg/kg resulted in the same TGI for free docetaxel and PEGylated nanoparticles; also recorded: At a dose of 30 mg/kg, the TGI for free docetaxel was greater than that for PEGylated nanoparticles; also recorded: At a dose of 60 mg/kg, free docetaxel was equivalent to PEGylated nanoparticles until the free drug group was removed from the study
Maximum body weight loss [5]: 14%
ataxia ([6]; 30 mg/kg IV): did not cause ataxia
body weight loss ([6]; 60 mg/kg IV, Days 21 and 28 (mean tumor size 150 mm^3 at start)): greater than 20%
ataxia ([6]; 60 mg/kg IV, listed as docetaxel): developed ataxia
ataxia ([6]; 60 mg/kg IV, listed as free docetaxel): Ataxia was observed four days after the second treatment
Maximum body weight loss ([7]; 15 mg/kg IV weekly x 2): 7%
% of initial body weight ([7]; 15 mg/kg): 113±11%
Maximum body weight loss ([7]; 30 mg/kg IV weekly x 2): 10%
% of initial body weight ([7]; 30 mg/kg): 105±9%
Tumor growth inhibition (TGI) (B16.F10 cells [8]): 90%

docetaxel-5050 PLGA-O-acetyl
growth of B16.F10 cells (viability) (B16.F10 cells [9]): inhibited the growth of B16.F10 cells in a dose and time dependent manner

doxorubicin 5050 PLGA amide
growth of B16.F10 cells (viability) (B16.F10 cells [9]): inhibited the growth of B16.F10 cells in a dose and time dependent manner

paclitaxel-5050 PLGA-O-acetyl
growth of B16.F10 cells (viability) (B16.F10 cells [9]): inhibited the growth of B16.F10 cells in a dose and time dependent manner
